The source of these data is US12178846B2, “Methods of using gap junctions as therapeutic targets for the treatment of degenerative disorders of the retina” (The Research Foundation for The State University of New York, priority 2014, dated 2024).

For this data set, the system named is RGCs in microbead-injected eyes. Put plainly: Microbead-induced experimental glaucoma. The class given is in vivo, mouse. Here is the method:
Experimental glaucoma in mice is induced by IOP elevation achieved by intracameral injections of 10 μm polystyrene microbeads (Invitrogen) as previously described (Chen H, et al., Invest Ophthalmol Vis Sci. 52:36-44 (2011)). The intracameral injections are made unilaterally with 2 μl of microbead suspension containing ˜7.2×106 beads using a glass micropipette attached to a microliter syringe. An equivalent volume of phosphate-buffered saline (PBS) is injected in contralateral eyes to serve as a control. Measurements of IOP are made with the commercially-available Tonolab tonometer (Colonial Medical Supply) and are performed weekly for up to 8 weeks after the microbeads injection. Measurements are made between […] and 12 PM, to minimize the effect of diurnal IOP variations. Six IOP measurements are made at each interval and averaged. Experimental glaucoma was induced by intracameral injections of polystyrene microbeads (Chen H, et al., Invest Ophthalmol Vis Sci. 52:36-44 (2011)) in one eye of wild type (WT) mice, connexin knockout (KO) mice and their […] (HET) control littermates, with sham injection of the second eye as control. IOP measurements were performed weekly and animals were sacrificed at 1, 4, or 8 weeks after initial bead injection. To access cell loss, RGCs and coupled ACs were retrogradely labeled with optic nerve injection of Neurobiotin and vertical retinal sections were counterstained with DAPI to determine overall nuclear counts. RGCs were also labeled by Brn3a antibody for identification. In addition to cell counts, overall retinal damage was assessed by GFAP expression. In some experiments gap junctions were blocked with meclofenamic acid (MFA) intravitreal weekly injections or genetically ablated in connexin KO mice (Cx36^−/−, Cx45^−/−, and Cx36^−/−/Cx45^−/− mice). Data are presented as mean±standard mean error. […] Statistical comparisons were assessed using Student's t-test. […]

In the case of `Cc1ccc(Cl)c(Nc2ccccc2C(=O)O)c1Cl` [MFA, meclofenamic acid], the RGC cell counts (MFA (50 μM) before and after bead injection, 8 weeks, control 50±1, untreated bead-injected 33±1, p>0.1 vs control) came out at 47±4. For the setting “injection of MFA alone in control eyes”, the “RGC counts, MFA alone” value is “no detectable effect”. For the setting “intravitreal MFA, microbead-injected eyes, 8 weeks”, the “loss of cells (RGC+dAC) in the GCL” value is reported as “prevents loss of cells in GCL”.
